Laboratory results from publication PMC4047216 (European journal of pharmacology, 2014).

Legend:
[1] = ref Saadeddin et al., 2004; cited from earlier work
HP-LTLC cells = experiment: MTT combination of VN/14-1 with thapsigargin, Chou-Talalay analysis; type: cell-based, human; conditions: in combination VN/14-1 + thapsigargin

| Structure (SMILES) | Oral bioavailability (F) [1] | DRI (dose reduction index) (HP-LTLC cells; 50% inhibition) | DRI (dose reduction index) (HP-LTLC cells; 75% inhibition) | DRI (dose reduction index) (HP-LTLC cells; 95% inhibition) |
| --- | --- | --- | --- | --- |
| CC1=C(/C=C/C(C)=C/C=C/C(C)=C/C(=O)O)C(C)(C)CCC1 [ATRA] | ~ 40% | – | – | – |
| C/C=C(/C)C(=O)O[C@H]1C(C)=C2[C@H]([C@@H]1OC(=O)CCCCCCC)[C@@](C)(OC(C)=O)C[C@H](OC(=O)CCC)[C@@]1(O)[C@H]2OC(=O)[C@@]1(C)O [thapsigargin] | – | 11.498 | 31.584 | 172.494 |
